Results reported in US8362000B2, “Azetidinyl diamides as monoacylglycerol lipase inhibitors” (Janssen Pharmaceutica NV, priority 2009, dated 2013).
pKd: −log10 of the molar value.

Biological target: T1, mutant MGL (Homo sapiens, UniProt Q99685, L169S/L176S)
T1 sequence (Q99685 1-303 L169S/L176S): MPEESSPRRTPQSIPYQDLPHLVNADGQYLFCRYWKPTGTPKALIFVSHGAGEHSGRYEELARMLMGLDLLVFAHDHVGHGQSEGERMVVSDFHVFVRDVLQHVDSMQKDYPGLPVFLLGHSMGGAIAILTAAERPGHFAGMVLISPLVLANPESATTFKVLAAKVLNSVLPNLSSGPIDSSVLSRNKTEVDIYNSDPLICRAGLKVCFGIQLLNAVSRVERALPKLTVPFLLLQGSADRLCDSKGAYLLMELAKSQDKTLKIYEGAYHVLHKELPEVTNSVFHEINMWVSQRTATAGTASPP
Test: MGL ThermoFluor assay - mutant
Assay type: binding
Details: ThermoFluor concentration-response, read-out: MGL mutant ThermoFluor Kd

SMILES | pKd
Cn1ccnc1C(=O)N1CCN(C2CN(C(=O)c3ccc(C4CCCCC4)cc3)C2)CC1 [Cpd 3, 1-{1-[(4-Cyclohexylphenyl)carbonyl]azetidin-3-yl}-4-[(1-methyl-1H-imidazol-2-yl)carbonyl]piperazine] | 5.60
COc1cc(C(=O)N2CC(N3CCN(C(=O)c4cscn4)CC3)C2)ccc1Br [Cpd 23, 1-{1-[(4-Bromo-3-methoxyphenyl)carbonyl]azetidin-3-yl}-4-(1,3-thiazol-4-ylcarbonyl)piperazine] | 5.30
O=C(c1ccccc1)N1CCN(C2CN(C(=O)c3ccc(-n4cccc4)cc3)C2)CC1 [Cpd 28, 1-(Phenylcarbonyl)-4-(1-{[4-(1H-pyrrol-1-yl)phenyl]carbonyl}azetidin-3-yl)piperazine] | 6.43
O=C(c1ccccc1)N1CCN(C2CN(C(=O)c3ccccc3NCc3ccccc3)C2)CC1 [Cpd 52, N-Benzyl-2-({3-[4-(phenylcarbonyl)piperazin-1-yl]azetidin-1-yl}carbonyl)aniline] | 5.48
N#Cc1ccc(-c2ccc(C(=O)N3CC(N4CCN(C(=O)c5cscn5)CC4)C3)cc2)cc1 [Cpd 171] | 6.15
CC(C)n1c(C(F)(F)F)nc2cc(C(=O)N3CC(N4CCN(C(=O)c5ccccc5)CC4)C3)ccc21 [Cpd 38, 1-(1-Methylethyl)-5-({3-[4-(phenylcarbonyl)piperazin-1-yl]azetidin-1-yl}carbonyl)-2-(trifluoromethyl)-1H-benzimidazole] | 6.74
O=C(c1ccccc1)N1CCN(C2CN(C(=O)c3ccc(-c4cc(Cl)cc(Cl)c4)cc3)C2)CC1 [Cpd 79, 1-{1-[(3′,5′-Dichlorobiphenyl-4-yl)carbonyl]azetidin-3-yl}-4-(phenylcarbonyl)piperazine] | 7.58
O=C(c1ccccc1)N1CCN(C2CN(C(=O)c3cccnc3Oc3ccccc3)C2)CC1 [Cpd 110, 1-{1-[(2-Phenoxypyridin-3-yl)carbonyl]azetidin-3-yl}-4-(phenylcarbonyl)piperazine] | 5.30
N#Cc1cccc(-c2ccc(C(=O)N3CC(N4CCN(C(=O)c5ccccc5)CC4)C3)cc2)c1 [Cpd 76, 4′-({3-[4-(Phenylcarbonyl)piperazin-1-yl]azetidin-1-yl}carbonyl)biphenyl-3-carbonitrile] | 6.48
Cc1ccc(-c2ccc(C(=O)N3CC(N4CCN(C(=O)c5cscn5)CC4)C3)[nH]2)cc1 [Cpd 298] | 5.54
O=C(c1cccc(-c2cccc(Br)n2)c1)N1CC(N2CCN(C(=O)c3nccs3)CC2)C1 [Cpd 151, 1-(1-{[3-(6-Bromopyridin-2-yl)phenyl]carbonyl}azetidin-3-yl)-4-(1,3-thiazol-2-ylcarbonyl)piperazine] | 7.60

Now from value to compound:

pKd | SMILES
6.54 | CC(C)(C)OC(=O)Nc1ccc(C(=O)N2CC(N3CCN(C(=O)c4ccccc4)CC3)C2)cc1 [Cpd 496, tert-Butyl [4-({3-[4-(phenylcarbonyl)piperazin-1-yl]azetidin-1-yl}carbonyl)phenyl]carbamate]
6.74 | O=C(c1ccccc1)N1CCN(C2CN(C(=O)c3ccc(CSc4cccc(Cl)c4)cc3)C2)CC1 [Cpd 551]
7.37 | O=C(c1ccc2c(ccn2-c2ncc(F)cn2)c1)N1CC(N2CCN(C(=O)c3cscn3)CC2)C1 [Cpd 1248, 1-(5-Fluoropyrimidin-2-yl)-5-({3-[4-(1,3-thiazol-4-ylcarbonyl)piperazin-1-yl]azetidin-1-yl}carbonyl)-1H-indole]
8.30 | O=C(c1ccc(Cc2ccc(C(F)(F)F)cc2)cc1)N1CC(N2CCN(C(=O)c3nccs3)CC2)C1 [Cpd 985]
6.70 | O=C(c1ccc(O[C@H]2CCN(C(=O)N3CCCC3)C2)c(I)c1)N1CC(N2CCN(C(=O)c3nccs3)CC2)C1 [Cpd 452]
7.40 | O=C(c1ccc2c(ccn2C(=O)c2ccc3c(c2)CCN3)c1)N1CC(N2CCN(C(=O)c3nccs3)CC2)C1 [Cpd 988, 1-(2,3-Dihydro-1H-indol-5-ylcarbonyl)-5-({3-[4-(1,3-thiazol-2-ylcarbonyl)piperazin-1-yl]azetidin-1-yl}carbonyl)-1H-indole]
7.00 | O=C(c1ccccc1)N1CCN(C2CN(C(=O)c3ccc(NCc4ccc(F)c(C(F)(F)F)c4)cc3)C2)CC1 [Cpd 494, N-[4-Fluoro-3-(trifluoromethyl)benzyl]-4-({3-[4-(phenylcarbonyl)piperazin-1-yl]azetidin-1-yl}carbonyl)aniline]
< 4.51 | O=C(Nc1cccc(C(=O)N2CC(N3CCN(C(=O)c4ccccc4)CC3)C2)c1)C1CCCCC1 [Cpd 539, N-[3-({3-[4-(Phenylcarbonyl)piperazin-1-yl]azetidin-1-yl}carbonyl)phenyl]cyclohexanecarboxamide]
5.78 | O=C(c1ccccc1)N1CCN(C2CN(C(=O)c3ccc(N4CCOCC4)cc3)C2)CC1 [Cpd 541, 4-[4-({3-[4-(Phenylcarbonyl)piperazin-1-yl]azetidin-1-yl}carbonyl)phenyl]morpholine]
5.48 | O=C(c1ccccc1)N1CCN(C2CN(C(=O)c3ccc(Oc4ccccn4)c(F)c3)C2)CC1 [Cpd 537]
5.60 | CC(=O)Oc1ccc(C(=O)N2CC(N3CCN(C(=O)c4nccs4)CC3)C2)cc1 [Cpd 471, 4-({3-[4-(1,3-Thiazol-2-ylcarbonyl)piperazin-1-yl]azetidin-1-yl}carbonyl)phenyl acetate]
6.48 | Cc1nc(COc2ccc(Cl)cc2)sc1C(=O)N1CC(N2CCN(C(=O)c3ccccc3)CC2)C1 [Cpd 558, 1-[1-({2-[(4-Chlorophenoxy)methyl]-4-methyl-1,3-thiazol-5-yl}carbonyl)azetidin-3-yl]-4-(phenylcarbonyl)piperazine]
6.00 | O=C(c1cscn1)N1CCN(C2CN(C(=O)C3CCC(c4ccc(Cl)cc4)CC3)C2)CC1 (stereo not drawn) [Cpd 643]

Same assay, conditions: ThermoFluor thermal stability binding assay, read-out: MGL mutant ThermoFluor Kd

SMILES | pKd
O=C(c1ccccc1)N1CCN(C2CN(C(=O)c3ccc(OCc4ccncc4)c(Cl)c3)C2)CC1 [Cpd 408] | 5.71
O=C(c1ccc2c(c1)CCCN2c1ccccc1)N1CC(N2CCN(C(=O)c3nccs3)CC2)C1 [Cpd 372, 1-Phenyl-6-({3-[4-(1,3-thiazol-2-ylcarbonyl)piperazin-1-yl]azetidin-1-yl}carbonyl)-1,2,3,4-tetrahydroquinoline] | 7.31
O=C(c1ccccc1)N1CCN(C2CN(C(=O)c3ccc(-c4cccc(C(F)(F)F)c4)cc3F)C2)CC1 [Cpd 246, 1-(1-{[3-Fluoro-3′-(trifluoromethyl)biphenyl-4-yl]carbonyl}azetidin-3-yl)-4-(phenylcarbonyl)piperazine] | 7.78
CS(=O)(=O)N1CCCc2cc(C(=O)N3CC(N4CCN(C(=O)c5cscn5)CC4)C3)ccc21 [Cpd 362] | 5.62
CC(=O)Nc1cccc(-c2ccc(C(=O)N3CC(N4CCN(C(=O)c5cscn5)CC4)C3)cc2)c1 [Cpd 235, N-[4′-({3-[4-(1,3-Thiazol-4-ylcarbonyl)piperazin-1-yl]azetidin-1-yl}carbonyl)biphenyl-3-yl]acetamide] | 6.23

Results, then the compound that gave them:

pKd | SMILES
6.88 | Cc1nc(-c2ccc(F)cc2)sc1C(=O)N1CC(N2CCN(C(=O)c3cscn3)CC2)C1 [Cpd 1386]
6.18 | O=C(c1nccs1)N1CCN(C2CN(C(=O)c3cnn(-c4ccccc4)c3C(F)(F)F)C2)CC1 [Cpd 1392]
6.03 | O=C(c1ccc(OCc2cncc(Cl)c2)cc1)N1CC(N2CCN(C(=O)c3cscn3)CC2)C1 [Cpd 981]
8.30 | Cc1nc(-c2cccc(C(F)(F)F)c2)sc1C(=O)N1CC(N2CCN(C(=O)c3nccs3)CC2)C1 [Cpd 1407, 1-[1-({4-Methyl-2-[3-(trifluoromethyl)phenyl]-1,3-thiazol-5-yl}carbonyl)azetidin-3-yl]-4-(1,3-thiazol-2-ylcarbonyl)piperazine]
